“And” between values parts separate entries of the source, which are not always exact repeats. Equal entries are not always repeated.
Assay: Solubility of extractant in extraction system, oil content by CH2Cl2 extraction and weighing (Ni/Mg chloride system)
Assay type: physicochemical
Conditions: 0.62 mol/L in Escaid 110; saponification 24%; nickel chloride solution 1.33 g/L Ni, 4 g/L Mg; 30 min; 25° C.
Experimental: Compound BC195 and diluent Escaid 110 were prepared into a 0.62 mol/L solution, and an aqueous phase was a magnesium-enriched nickel chloride solution containing 1.33 g/L Ni and 4 g/L Mg; 100 mL of the organic phase was added in a 250 mL separatory funnel, 10 mol/L sodium hydroxide aqueous solution was added for saponification to a saponification proportion of 24%, and after the saponification, 100 mL of the aqueous phase was added, extraction equilibrium was carried out for 30 min, and the temperature was 25° C.
Oil content test: the aqueous phase was separated out and added with H2SO4, and the [H^+] concentration of the aqueous phase solution was about 1 mol/L. The CH2Cl2 was used for extraction (30 mL×3), and the CH2Cl2 layer was collected, dried with 1 g anhydrous Na2SO4 to remove the water in CH2Cl2, and filtered; the filtrate was subjected to rotary evaporation, and then the residue was dried with an oil pump for 30 min. The oil content which CH2Cl2 extracted out in the system was obtained by weighing the flask before and after the rotary evaporation.
This comparative example differs from Performance Example 6 in that Compound BC195 was replaced by Extractant CA12 (commercially available, with an acid content of 98%).

Compound: CCCCCCC(OCC(CC)CCCC)C(=O)O (stereo not shown) [Compound BC195]
- Equilibrium pH: 7.2 and 7.23

From patent US20230312449A1, “CARBOXYLIC ACID COMPOUND, AND PREPARATION METHOD THEREFOR AND APPLICATION THEREOF” (BOTREE CYCLING SCI & TECH CO., LTD., priority 2020, published 2023)
